In publication PMC7337102 (ACS infectious diseases, 2019):

How the values were obtained:
Assay type in all cases: biochemical
[1] = biological target: Eis_R37A (Mycobacterium tuberculosis, UniProt P9WFK7, R37A)
[2] = biological target: Eis_W36R (Mycobacterium tuberculosis, UniProt P9WFK7, W36R)
[3] = biological target: Eis_S83G (Mycobacterium tuberculosis, UniProt P9WFK7, S83G)
[4] = biological target: Eis_F84A (Mycobacterium tuberculosis, UniProt P9WFK7, F84A)
[5] = biological target: Eis_W36A (Mycobacterium tuberculosis, UniProt P9WFK7, W36A)
[6] = biological target: Eis_R37G (Mycobacterium tuberculosis, UniProt P9WFK7, R37G)
[7] = biological target: Eis_D26A (Mycobacterium tuberculosis, UniProt P9WFK7, D26A)
[8] = biological target: Eis_L63A (Mycobacterium tuberculosis, UniProt P9WFK7, L63A)
[9] = biological target: Eis_M65A (Mycobacterium tuberculosis, UniProt P9WFK7, M65A)

With `NC[C@H]1O[C@H](O[C@H]2[C@H](O)[C@@H](O[C@H]3O[C@H](CO)[C@@H](O)[C@H](N)[C@H]3O)[C@H](N)C[C@@H]2N)[C@H](O)[C@@H](O)[C@@H]1O` [KAN, kanamycin] the Km [1] was 971 ± 166 µM, the kcat [1] was 0.158 ± 0.005 s⁻¹ and the Km [2] was 352 ± 77 µM. For the same compound, the “decrease in the maximum turnover rate” value [2] was 3.3 fold, the “increase of the binding affinity to KAN” value [2] was 1.6 fold and the kcat [2] was 0.0733 ± 0.0067 s⁻¹. The Km [3] was 432 ± 48 µM, the “increase in the catalytic efficiency of the enzyme” value [3] was 2 fold and the kcat [3] was 0.365 ± 0.013 s⁻¹. It also gave a Km [4] of 569 ± 94 µM, a kcat [4] of 0.142 ± 0.012 s⁻¹ and a Km [5] of 556 ± 148 µM. It also gave a kcat [5] of 0.138 ± 0.0167 s⁻¹, a Km [6] of 696 ± 44 µM and a kcat [6] of 0.215 ± 0.0017 s⁻¹. The Km [7] was 1280 ± 360 µM, the “increase in the Km value of KAN from that for the wild-type enzyme” value [7] was 2.3 fold and the kcat [7] was 0.235 ± 0.0417 s⁻¹. For the same compound, the Km [8] was 484 ± 93 µM, the kcat [8] was 0.323 ± 0.025 s⁻¹ and the Km [9] was 247 ± 19 µM. The “increase in the catalytic efficiency from that of the wild-type enzyme” value [9] was 4.6 fold, the kcat [9] was 0.495 ± 0.015 s⁻¹ and the “maximum turnover rate, fold higher” value [9] was 2 fold.
